Test system: 889142-216-R-J1-PDC complex spheroid viability
Assay: Anticancer human tumor 889142-216-R-J1-PDC patient-derived bladder carcinoma cell line growth inhibition [POLQ]
Conditions: for IC50: curve of first compound; for viability, T/C: stronger effect = lower value
How it was run: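 Patient-derived tumour cells were co-cultured with HUVEC and mesenchymal stem cells as multicellular spheroids at 37 °C. They were treated with POLQ inhibitors (novobiocin, ART-558, RP6685) alone or combined with other agents. Top concentrations were at or near clinical Cmax (otherwise 10 microM; SN-38 at 1 microM), decreasing in half-log steps.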

[1] = second compound 0.0316 µM, first compound 0.0316 µM
[2] = second compound 0.0316 µM, first compound 0.1 µM
[3] = second compound 0.0316 µM, first compound 0.316 µM
[4] = second compound 0.0316 µM, first compound 1 µM
[5] = second compound 0.1 µM, first compound 0.0316 µM
[6] = second compound 0.1 µM, first compound 0.1 µM
[7] = second compound 0.1 µM, first compound 0.316 µM
[8] = second compound 0.1 µM, first compound 1 µM
[9] = second compound 0.316 µM, first compound 0.0316 µM
[10] = second compound 0.316 µM, first compound 0.1 µM
[11] = second compound 0.316 µM, first compound 0.316 µM
[12] = second compound 0.316 µM, first compound 1 µM
[13] = second compound 1 µM, first compound 0.0316 µM
[14] = second compound 1 µM, first compound 0.1 µM
[15] = second compound 1 µM, first compound 0.316 µM
[16] = second compound 1 µM, first compound 1 µM
[17] = second compound 3.16 µM, first compound 0.0316 µM
[18] = second compound 3.16 µM, first compound 0.1 µM
[19] = second compound 3.16 µM, first compound 0.316 µM
[20] = second compound 3.16 µM, first compound 1 µM
[21] = second compound 10 µM, first compound 0.0316 µM
[22] = second compound 10 µM, first compound 0.1 µM
[23] = second compound 10 µM, first compound 0.316 µM
[24] = second compound 10 µM, first compound 1 µM
[25] = second compound 0.0316 µM, first compound 3.16 µM
[26] = second compound 0.0316 µM, first compound 10 µM
[27] = second compound 0.1 µM, first compound 3.16 µM
[28] = second compound 0.1 µM, first compound 10 µM
[29] = second compound 0.316 µM, first compound 3.16 µM
[30] = second compound 0.316 µM, first compound 10 µM
[31] = second compound 1 µM, first compound 3.16 µM
[32] = second compound 1 µM, first compound 10 µM
[33] = second compound 3.16 µM, first compound 3.16 µM
[34] = second compound 3.16 µM, first compound 10 µM
[35] = second compound 10 µM, first compound 3.16 µM
[36] = second compound 10 µM, first compound 10 µM
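Also: spheroids exposed to compounds for seven days.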
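For viability, T/C in this document: 100% = DMSO vehicle control viability.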

Molecule `CCc1c2c(nc3ccc(O)cc13)-c1cc3c(c(=O)n1C2)COC(=O)[C@]3(O)CC` + Cc1cccc(N(C)C(=O)C2C(O)CCN2c2nc(C)cc(C(F)(F)F)c2C#N)c1 has an IC50 (second compound 0.0316 µM) of 0.0206 µM, an IC50 (second compound 0.1 µM) of 0.017 µM and an IC50 (second compound 0.316 µM) of 0.014 µM. It also gave an IC50 (second compound 1 µM) of 0.0145 µM, an IC50 (second compound 3.16 µM) of 0.0194 µM and an IC50 (second compound 10 µM) of 0.00621 µM. It also gave a viability, T/C (second compound 0.0316 µM, first compound 0.00316 µM) of 68.8%, a viability, T/C (second compound 0.0316 µM, first compound 0.01 µM) of 48.8% and a viability, T/C [1] of 50.4%. It also gave a viability, T/C [2] of 30.2%, a viability, T/C [3] of 35.8% and a viability, T/C [4] of 10.7%. For the same molecule, the viability, T/C (second compound 0.1 µM, first compound 0.00316 µM) was 58.9%, the viability, T/C (second compound 0.1 µM, first compound 0.01 µM) was 56% and the viability, T/C [5] was 44.7%. The viability, T/C [6] was 34%, the viability, T/C [7] was 28.4% and the viability, T/C [8] was 10.4%. For the same molecule, the viability, T/C (second compound 0.316 µM, first compound 0.00316 µM) was 58.4%, the viability, T/C (second compound 0.316 µM, first compound 0.01 µM) was 57.3% and the viability, T/C [9] was 37.2%. The viability, T/C [10] was 35.6%, the viability, T/C [11] was 27.7% and the viability, T/C [12] was 8.37%. It also gave a viability, T/C (second compound 1 µM, first compound 0.00316 µM) of 64%, a viability, T/C (second compound 1 µM, first compound 0.01 µM) of 51.3% and a viability, T/C [13] of 39%. It also gave a viability, T/C [14] of 35.3%, a viability, T/C [15] of 31.1% and a viability, T/C [16] of 9.07%. It also gave a viability, T/C (second compound 3.16 µM, first compound 0.00316 µM) of 60.5%, a viability, T/C (second compound 3.16 µM, first compound 0.01 µM) of 60.4% and a viability, T/C [17] of 40.9%. For the same molecule, the viability, T/C [18] was 34%, the viability, T/C [19] was 30.3% and the viability, T/C [20] was 5.91%. The viability, T/C (second compound 10 µM, first compound 0.00316 µM) was 52%, the viability, T/C (second compound 10 µM, first compound 0.01 µM) was 51.9% and the viability, T/C [21] was 35.9%. For the same molecule, the viability, T/C [22] was 34.7%, the viability, T/C [23] was 26.1% and the viability, T/C [24] was 6.24%.
With `CCCS(=O)(=O)Nc1ccc(F)c(C(=O)c2c[nH]c3ncc(-c4ccc(Cl)cc4)cc23)c1F` + Cc1cccc(N(C)C(=O)C2C(O)CCN2c2nc(C)cc(C(F)(F)F)c2C#N)c1 the IC50 (second compound 0.0316 µM) was greater than 10 µM, the IC50 (second compound 0.1 µM) was greater than 10 µM and the IC50 (second compound 0.316 µM) was greater than 10 µM. For the same molecule, the IC50 (second compound 1 µM) was 9.29 µM, the IC50 (second compound 3.16 µM) was 8.82 µM and the IC50 (second compound 10 µM) was 6.13 µM. The viability, T/C [1] was 100%, the viability, T/C [2] was 116% and the viability, T/C [3] was 98.7%. The viability, T/C [4] was 105%, the viability, T/C [25] was 83.5% and the viability, T/C [26] was 50.5%. The viability, T/C [5] was 121%, the viability, T/C [6] was 101% and the viability, T/C [7] was 91%. The viability, T/C [8] was 96.5%, the viability, T/C [27] was 81.3% and the viability, T/C [28] was 48.8%. It also gave a viability, T/C [9] of 110%, a viability, T/C [10] of 86.7% and a viability, T/C [11] of 93.3%. It also gave a viability, T/C [12] of 91.7%, a viability, T/C [29] of 72.1% and a viability, T/C [30] of 60.5%. It also gave a viability, T/C [13] of 94.9%, a viability, T/C [14] of 91.1% and a viability, T/C [15] of 92.7%. For the same molecule, the viability, T/C [16] was 90.5%, the viability, T/C [31] was 66.8% and the viability, T/C [32] was 48.9%. The viability, T/C [17] was 101%, the viability, T/C [18] was 96% and the viability, T/C [19] was 81.1%. The viability, T/C [20] was 79.2%, the viability, T/C [33] was 75.2% and the viability, T/C [34] was 44.9%. It also gave a viability, T/C [21] of 65.1%, a viability, T/C [22] of 86.2% and a viability, T/C [23] of 90.1%. It also gave a viability, T/C [24] of 66.3%, a viability, T/C [35] of 67% and a viability, T/C [36] of 38.5%.
Work on `CC(C)n1c(=O)n(C)c2cnc3cc(F)c(-c4ccc(OCCCN5CCCCC5)nc4)cc3c21` + Nc1ccc(C#CCN(C(=O)Cc2ncc(C(F)(F)F)cc2C(F)(F)F)c2ccc(F)cc2)nn1 yielded an IC50 (second compound 0.0316 µM) greater than 10 µM, an IC50 (second compound 0.1 µM) greater than 10 µM and an IC50 (second compound 0.316 µM) greater than 10 µM. The IC50 (second compound 1 µM) was greater than 10 µM, the IC50 (second compound 3.16 µM) was greater than 10 µM and the IC50 (second compound 10 µM) was greater than 10 µM. The viability, T/C [1] was 96.5%, the viability, T/C [2] was 113% and the viability, T/C [3] was 119%. The viability, T/C [4] was 79.2%, the viability, T/C [25] was 65.5% and the viability, T/C [26] was 95.2%. The viability, T/C [5] was 122%, the viability, T/C [6] was 89.3% and the viability, T/C [7] was 70.7%. The viability, T/C [8] was 84%, the viability, T/C [27] was 62% and the viability, T/C [28] was 76.1%. For the same molecule, the viability, T/C [9] was 95.8%, the viability, T/C [10] was 85.1% and the viability, T/C [11] was 79.9%. The viability, T/C [12] was 80.7%, the viability, T/C [29] was 56.4% and the viability, T/C [30] was 95.8%. For the same molecule, the viability, T/C [13] was 91.4%, the viability, T/C [14] was 80.3% and the viability, T/C [15] was 104%. The viability, T/C [16] was 88.7%, the viability, T/C [31] was 57.3% and the viability, T/C [32] was 97.8%. It also gave a viability, T/C [17] of 85.6%, a viability, T/C [18] of 72.8% and a viability, T/C [19] of 80.5%. The viability, T/C [20] was 88%, the viability, T/C [33] was 70.1% and the viability, T/C [34] was 113%. It also gave a viability, T/C [21] of 79.3%, a viability, T/C [22] of 97.8% and a viability, T/C [23] of 88.6%. The viability, T/C [24] was 79.7%, the viability, T/C [35] was 59.7% and the viability, T/C [36] was 97.2%.
